Counter-ions that a name gives are not always drawn.
What was measured:
[1] = tested on: ethanol-induced rat ulcer; experiment: Ethanol-induced rat ulcer assay (oral antiulcer activity); type: in vivo; conditions: for inhibition at 5 mg/kg: Rattus norvegicus, po; for inhibition at 5 mg/kg / % Inhibition (oral activity in the ethanol-induced rat ulcer assay): 5 mg./kg. orally, 15 min before absolute ethanol (1.0 ml.), male fasted rats, 8/group, lesions scored 1 hour after ethanol, based on ulcer index vs controls
Experimental: The antiulcer activity of the compounds of the present invention is evaluated by an ethanol-induced rat ulcer assay, a test reflecting clinical utility of these compounds in the treatment of peptic ulcers, particularly gastric ulcers.
The effectiveness of the products of this invention as antiulcer agents is determined in an ethanol-induced rat ulcer assay. In this test, overnight fasted male rats are orally administered either drug (5 mg./kg.) dissolved or suspended in water or dilute NaOH, or water (controls), fifteen minutes prior to an orally administered dose of absolute ethanol (1.0 ml.). One hour after the ethanol challenge the animals (8/group) are killed and the stomachs examined for the presence of lesions. After sacrifice the abdomen is opened and a locking hemostate placed at the pylorus. Six ml. of a 4% solution of formaldehyde is injected into the stomach with a gastric feeding tube and a second locking hemostate is used to seal the esophagus. The stomach is removed, opened along the greater curvature and examined for ulceration.
The scoring system used to quantitate the ethanol-induced lesions is given below.
1 Normal appearing stomach
2 Pinpoint sized lesions
3 Lesions, 2 or fewer; pin-
5 Lesions with hemorrhage
For each group of animals an ulcer index is calculated as follows:
Ulceration Index=(the sum of the scores of the group)×(the sum of the number of ulcers in the group)×(the fraction of the group having any incidence of ulceration).
The percent inhibition of ulcers is calculated as follows:
% Inhibition=100×[(ulcer index controls)-(ulcer index drug-treated)].div.(ulcer index controls).

[2] = tested on: gastric ulcers; conditions: animals, including humans; cited from earlier work
[3] = tested on: antiallergic activity; conditions: cited from earlier work

Compound | inhibition at 5 mg/kg [1] [%] | % Inhibition (oral activity in the ethanol-induced rat ulcer assay) [1] | other results
CCOC(=O)C(=O)Nc1nc(C)c(C)s1 [Example 16, ethyl 4,5-dimethylthiazol-2-ylcarbamoylcarboxylate] | 62 |  | 
CCOC(=O)C(=O)Nc1nc(CC)c(CC)s1 [Example 18, ethyl 4,5-diethylthiazol-2-ylcarbamoylcarboxylate] | 81 |  | 
CCOC(=O)C(=O)Nc1nc2c(s1)CCCC2 [Example 23, ethyl 4,5,6,7-tetrahydrobenzthiazol-2-ylcarbamoylcarboxylate] | 51 |  | 
CC1(C)[C@@H](OC(=O)CCC(=O)O)CC[C@]2(C)[C@H]3C(=O)C=C4[C@@H]5C[C@@](C)(C(=O)O)CC[C@]5(C)CC[C@@]4(C)[C@]3(C)CC[C@@H]12 [carbenoxolone sodium, disodium salt of the hemisuccinate of glycyrrhetinic acid] |  |  | effect on gastric ulcers [2]: prevent formation of and to accelerate healing of gastric ulcers
CCOC(=O)C(=O)Nc1nccs1 [ethyl thiazol-2-ylcarbamoylcarboxylate] | 3 | inactive | antiulcer activity (in words) ([1]; compared with compounds of the invention): lacking in the antiulcer activity; antiallergic activity, parenteral ([3]; high parenteral dose): antiallergic activity; antiallergic activity, oral ([3]; oral, even at 200 mg./kg.): no significant oral activity
ethyl 4-methylthiazol-2-ylcarbamoylcarboxylate [Example 14] |  | 59% | 
ethyl 5-methylthiazol-2-ylcarbamoylcarboxylate [Example 15] |  | 48% | 

Source: patent publication US4321372A, “Antiulcer thiazol-2-ylcarbamoyl-carboxylic acids, esters and amides” (Pfizer Inc., priority 1980, dated 1982)
